Laboratory results: US8987502B2, “Oleanolic acid amidate derivatives, preparation methods and uses thereof” (Hangzhou Bensheng Pharmaceutical Co., Ltd., priority 2011, dated 2015)
Values after ≈ are worked out from the molar mass of the structure shown.

Columns and labels:
[1] = test system: Kasumi-1; assay: MTT leukemia cell proliferation inhibition, Kasumi-1; type: cell-based; conditions: Homo sapiens; for inhibition at 16 µg/mL: Kasumi-1, 16 μg/mL compound, 72 h, read-out: IR (inhibition rate); for IC50: Kasumi-1, 72 h, MTT
Excerpt: (§1) Leukemia cell lines: leukemia cell lines: K562/adr (drug-resistant, chronic myeloid leukemia, CML), NB4 (acute promyelocytic leukemia, AML), Kasumi-1 (acute myeloid leukemia M2 type, AML-M2), Jurkat (acute lymphoblastic leukemia, ALL), all of which are donated by Cancer Research Institute of Zhejiang University, China; and H9 (acute lymphoblastic leukemia, ALL), which is purchased from China Center for Type Culture Collection (CCTCC).
(§2) Reagents: The standard sample of oleanolic acid (OA) is purchased from Hua Kang Pharmaceutical Raw Material Factory, Shifang City, Sichuan, China; and the amidated oleanolic acid derivatives are prepared according to the present invention.
(§3) Obtaining 6000 well-growing leukemia cells and inoculating them into wells of a 96-well cell culture plate. The culture medium is the 1640 cell culture medium containing 10% fetal bovine serum. After adding the amidated oleanolic acid derivatives of different concentrations and mixing uniformly, placing the plate in a carbon dioxide cell incubator (5% CO2) at 37° C. and incubated for 72 hours. Then the relative number of viable cells is determined by the MTT method. In this experiment, the cell proliferation inhibition rate in control group (not treated with any compound) is set as 0%.

[2] = test system: SK-OV-3; assay: MTT solid tumor cell proliferation inhibition, SK-OV-3; type: cell-based, human; conditions: Homo sapiens; for inhibition at 16 µg/mL: SK-OV-3, 16 μg/mL compound, 72 h, read-out: IR (inhibition rate); for IC50: SK-OV-3, 72 h, MTT
Procedure: (§4) Human solid tumor cell lines: Hep-2 (laryngeal carcinoma), A549 (human lung cancer), CaES-17 (esophageal cancer cell), PC-3 (prostate cancer), CNE (nasopharyngeal carcinoma cell), and SK-OV-3 (ovarian cancer cell), all of which are purchased from China Center For Type Culture Collection; RKO (human colon adenocarcinoma cell), MGC 803 (human gastric cancer cell), MG63 (osteosarcoma) and U87 MG (malignant glioma cell), all of which are purchased from Fuxiang Bio-tech Co. Ltd., Shanghai, China; PANC-1 (pancreatic cancer), Hep G2 (human liver cancer cell), Becap37 (human breast cancer cell), and Hela (human cervical cancer cell), all of which are donated by Cancer Research Institute of Zhejiang University, China.
(§5) Obtaining 4000 well-growing human solid tumor cells and inoculating them into wells of a 96-well cell culture plate. The culture medium is DMEM High Glucose cell culture medium containing 10% fetal bovine serum. The plate is placed in a carbon dioxide cell incubator (5% CO2) at 37° C. for 24 hours for incubation. After being added with the amidated oleanolic acid derivatives of different concentrations and mixed uniformly, the plate is placed in a carbon dioxide cell incubator (5% CO2) at 37° C. for 72 hours for incubation. Then the relative number of the living cells is determined by the MTT method. In this experiment, the cell proliferation inhibition rate in control group (not treated with any compound) is set as 0%.

[3] = test system: NB4; assay: MTT leukemia cell proliferation inhibition, NB4; type: cell-based; conditions: Homo sapiens, NB-4; for inhibition at 16 µg/mL: NB4, 16 μg/mL compound, 72 h, read-out: IR (inhibition rate); for IC50: NB4, 72 h, MTT
Excerpt: as §1, §2, §3

[4] = test system: Hela; assay: MTT solid tumor cell proliferation inhibition, Hela; type: cell-based, human; conditions: Homo sapiens, Hela, 72 h; for inhibition at 16 µg/mL: 16 μg/mL compound, read-out: IR (inhibition rate); for IC50: MTT
Procedure: as §4, §5

[5] = test system: CNE; assay: MTT solid tumor cell proliferation inhibition, CNE; type: cell-based, human; conditions: Homo sapiens, CNE, 72 h; for inhibition at 16 µg/mL: 16 μg/mL compound, read-out: IR (inhibition rate); for IC50: MTT
Procedure: as §4, §5

[6] = test system: RKO; assay: MTT solid tumor cell proliferation inhibition, RKO; type: cell-based; conditions: Homo sapiens, 72 h; for inhibition at 16 µg/mL: 16 μg/mL compound, read-out: IR (inhibition rate); for IC50: MTT
Procedure: as §4, §5

[7] = test system: CaES-17; assay: MTT solid tumor cell proliferation inhibition, CaES-17; type: cell-based, human; conditions: Homo sapiens, CaEs17; for inhibition at 16 µg/mL: CaES-17, 16 μg/mL compound, 72 h, read-out: IR (inhibition rate); for IC50: CaES-17, 72 h, MTT
Procedure: as §4, §5

[8] = test system: MG 63; assay: MTT solid tumor cell proliferation inhibition, MG 63; type: cell-based, human; conditions: for IC50: Homo sapiens, MG 63, 72 h, MTT; for IR (inhibition rate): MG 63, 16 μg/mL compound, 72 h
Procedure: as §4, §5

[9] = test system: U87 MG; assay: MTT solid tumor cell proliferation inhibition, U87 MG; type: cell-based, human; conditions: Homo sapiens, U-87 MG, U87 MG, 72 h; for inhibition at 16 µg/mL: 16 μg/mL compound, read-out: IR (inhibition rate); for IC50: MTT
Procedure: as §4, §5

[10] = test system: PC-3; assay: MTT solid tumor cell proliferation inhibition, PC-3; type: cell-based, human; conditions: for inhibition at 16 µg/mL / IC50: Homo sapiens; for inhibition at 16 µg/mL: PC-3, 16 μg/mL compound, 72 h, read-out: IR (inhibition rate); for IC50: PC-3, 72 h, MTT
Procedure: as §4, §5

[11] = test system: Hep G2; assay: MTT solid tumor cell proliferation inhibition, Hep G2; type: cell-based; conditions: Homo sapiens, HepG2; for inhibition at 16 µg/mL: Hep G2, 16 μg/mL compound, 72 h, read-out: IR (inhibition rate); for IC50: Hep G2, 72 h, MTT
Procedure: as §4, §5

[12] = test system: MGC803; assay: MTT solid tumor cell proliferation inhibition, MGC803; type: cell-based, human; conditions: Homo sapiens, MGC-803; for inhibition at 16 µg/mL: MGC803, 16 μg/mL compound, 72 h, read-out: IR (inhibition rate); for IC50: MGC803, 72 h, MTT
Procedure: as §4, §5

[13] = test system: Hep-2; assay: MTT solid tumor cell proliferation inhibition, Hep-2; type: cell-based, human; conditions: Homo sapiens; for inhibition at 16 µg/mL: Hep-2, 16 μg/mL compound, 72 h, read-out: IR (inhibition rate); for IC50: Hep-2, 72 h, MTT
Procedure: as §4, §5

[14] = test system: PANC-1; assay: MTT solid tumor cell proliferation inhibition, PANC-1; type: cell-based, human; conditions: Homo sapiens; for inhibition at 16 µg/mL: PANC-1, 16 μg/mL compound, 72 h, read-out: IR (inhibition rate); for IC50: PANC-1, 72 h, MTT
Procedure: as §4, §5

[15] = test system: K562/adr; assay: MTT leukemia cell proliferation inhibition, K562/adr; type: cell-based; conditions: Homo sapiens, 72 h; for inhibition at 16 µg/mL: 16 μg/mL compound, read-out: IR (inhibition rate); for IC50: MTT
Excerpt: as §1, §2, §3

[16] = test system: Becap37; assay: MTT solid tumor cell proliferation inhibition, Becap37; type: cell-based; conditions: Homo sapiens; for inhibition at 16 µg/mL: Becap37, 16 μg/mL compound, 72 h, read-out: IR (inhibition rate); for IC50: Becap37, 72 h, MTT
Procedure: as §4, §5

[17] = test system: H9; assay: MTT leukemia cell proliferation inhibition, H9; type: cell-based, human; conditions: for inhibition at 16 µg/mL / IC50: Homo sapiens; for inhibition at 16 µg/mL: H9, 16 μg/mL compound, 72 h, read-out: IR (inhibition rate); for IC50: H9, 72 h, MTT
Excerpt: as §1, §2, §3

[18] = test system: A549; assay: MTT solid tumor cell proliferation inhibition, A549; type: cell-based, human; conditions: Homo sapiens; for inhibition at 16 µg/mL: A549, 16 μg/mL compound, 72 h, read-out: IR (inhibition rate); for IC50: A549, 72 h, MTT
Procedure: as §4, §5

[19] = test system: RPMI8226; assay: MTT multiple myeloma cell proliferation inhibition, RPMI8226; type: cell-based; conditions: Homo sapiens, RPMI-8226; for inhibition at 16 µg/mL: RPMI8226, 16 μg/mL compound, 72 h, read-out: IR (inhibition rate); for IC50: RPMI8226, 72 h, MTT
Procedure: Multiple myeloma cell lines: RPMI8226 (multiple myeloma), purchased from Fuxiang Bio-tech Co. Ltd., Shanghai, China.
as §3

[20] = test system: Jurkat; assay: MTT leukemia cell proliferation inhibition, Jurkat; type: cell-based; conditions: Homo sapiens, 72 h; for inhibition at 16 µg/mL: 16 μg/mL compound, read-out: IR (inhibition rate); for IC50: MTT
Excerpt: as §1, §2, §3

CC1(C)CC[C@]2(NC(=O)c3ccccc3)CC[C@]3(C)C(=CC[C@@H]4[C@@]5(C)CC[C@H](O)C(C)(C)[C@@H]5CC[C@]43C)[C@@H]2C1 [BS-OA-101]
inhibition at 16 µg/mL [1]: 53.8%
IC50 [1]: 15.4 µg/mL (≈ 29 µM)
inhibition at 16 µg/mL [2]: 39.7%
IC50 [2]: > 16 µg/mL
inhibition at 16 µg/mL [3]: 96.1%
IC50 [3]: 8.2 µg/mL (≈ 15.4 µM)
inhibition at 16 µg/mL [4]: 57%
IC50 [4]: 15.8 µg/mL (≈ 29.8 µM)
inhibition at 16 µg/mL [5]: 36.2%
IC50 [5]: > 16 µg/mL
inhibition at 16 µg/mL [6]: 22.5%
IC50 [6]: > 16 µg/mL
inhibition at 16 µg/mL [7]: 25.8%
IC50 [7]: > 16 µg/mL
IC50 [8]: > 16 µg/mL
IR (inhibition rate) [8]: 17.3%
inhibition at 16 µg/mL [9]: 36.4%
IC50 [9]: > 16 µg/mL
inhibition at 16 µg/mL [10]: 45.7%
IC50 [10]: 19.9 µg/mL (≈ 37.4 µM)
inhibition at 16 µg/mL [11]: 16.1%
IC50 [11]: > 16 µg/mL
inhibition at 16 µg/mL [12]: 33.2%
IC50 [12]: > 16 µg/mL
inhibition at 16 µg/mL [13]: 7.5%
IC50 [13]: > 16 µg/mL
inhibition at 16 µg/mL [14]: 20.6%
IC50 [14]: > 16 µg/mL
inhibition at 16 µg/mL [15]: 88.7%
IC50 [15]: 6.29 µg/mL (≈ 11.8 µM)
inhibition at 16 µg/mL [16]: 18.1%
IC50 [16]: > 16 µg/mL
inhibition at 16 µg/mL [17]: 58.7%
IC50 [17]: 14 µg/mL (≈ 26.3 µM)
inhibition at 16 µg/mL [18]: 37.6%
IC50 [18]: > 16 µg/mL
inhibition at 16 µg/mL [19]: 97.5%
IC50 [19]: 6.49 µg/mL (≈ 12.2 µM)
inhibition at 16 µg/mL [20]: 30%
IC50 [20]: > 16 µg/mL

CC1(C)CC[C@]2(NC(=O)C3CC3)CC[C@]3(C)C(=CC[C@@H]4[C@@]5(C)CC[C@H](O)C(C)(C)[C@@H]5CC[C@]43C)[C@@H]2C1 [BS-OA-097]
inhibition at 16 µg/mL [1]: 42.9%
IC50 [1]: > 16 µg/mL
inhibition at 16 µg/mL [2]: 68.9%
IC50 [2]: 7.63 µg/mL (≈ 15.4 µM)
inhibition at 16 µg/mL [3]: 93.4%
IC50 [3]: 6.51 µg/mL (≈ 13.1 µM)
inhibition at 16 µg/mL [4]: 64.4%
IC50 [4]: 11.9 µg/mL (≈ 24 µM)
inhibition at 16 µg/mL [5]: 40%
IC50 [5]: > 16 µg/mL
inhibition at 16 µg/mL [6]: 29%
IC50 [6]: > 16 µg/mL
inhibition at 16 µg/mL [7]: 45.7%
IC50 [7]: 18.9 µg/mL (≈ 38.1 µM)
IC50 [8]: 13.2 µg/mL (≈ 26.5 µM)
IR (inhibition rate) [8]: 78.6%
inhibition at 16 µg/mL [9]: 37.4%
IC50 [9]: > 16 µg/mL
inhibition at 16 µg/mL [10]: 56.6%
IC50 [10]: 13.1 µg/mL (≈ 26.3 µM)
improvement of cell inhibition rate as compared with oleanolic acid ([10]; PC-3 cells): ~2 fold
inhibition at 16 µg/mL [11]: 35.1%
IC50 [11]: > 16 µg/mL
inhibition at 16 µg/mL [12]: 56.1%
IC50 [12]: 14.4 µg/mL (≈ 29 µM)
inhibition at 16 µg/mL [13]: 28.5%
IC50 [13]: > 16 µg/mL
inhibition at 16 µg/mL [14]: 38.8%
IC50 [14]: > 16 µg/mL
inhibition at 16 µg/mL [15]: 91.3%
IC50 [15]: 2.4 µg/mL (≈ 4.84 µM)
inhibition at 16 µg/mL [16]: 41.3%
IC50 [16]: > 16 µg/mL
improvement of cell inhibition rate as compared with oleanolic acid ([17]; H9 cells): ~4 fold
inhibition at 16 µg/mL [17]: 85.3%
IC50 [17]: 6.3 µg/mL (≈ 12.7 µM)
inhibition at 16 µg/mL [18]: 38.1%
IC50 [18]: > 16 µg/mL
inhibition at 16 µg/mL [19]: 95.3%
IC50 [19]: 3.51 µg/mL (≈ 7.08 µM)
inhibition at 16 µg/mL [20]: 56.6%
IC50 [20]: 14.3 µg/mL (≈ 28.9 µM)
